From the OligoGym collection
Oligonucleotides are written 5' to 3', each unit as a sugar letter and its base; * is a phosphorothioate linkage, no mark a phosphodiester; rarer units and linkages stand in square brackets, end groups in braces. Plain capitals give the bases only. d = 2'-deoxy (DNA); r = 2'-OH (RNA)

biological target: UBE2B; assay: reporter assay of Huesken 2005; conditions: siRNA
Also: test concentration or dose not given here.

Point of comparison: “sense rArArArCrUrArGrUrArArUrArGrArArUrUrUrUdTdT / antisense rArArArArUrUrCrUrArUrUrArCrUrArGrUrUrUdAdA”, normalised inhibition (eCFP-eYFP dual reporter) 47.5%. Against it:
- sense rArArArArGrArGrUrUrUrCrGrGrCrCrArUrUrGdTdT / antisense rCrArArUrGrGrCrCrGrArArArCrUrCrUrUrUrUdCdT — higher, 49.2%
- sense rArArCrArArCrArUrCrArUrGrCrArGrUrGrGrAdTdT / antisense rUrCrCrArCrUrGrCrArUrGrArUrGrUrUrGrUrUdTdT — higher, 56.4%
- sense rArArCrArUrCrArUrGrCrArGrUrGrGrArArUrGdTdT / antisense rCrArUrUrCrCrArCrUrGrCrArUrGrArUrGrUrUdGdT — higher, 55%
- sense rArArCrCrGrArArUrCrCrUrArArCrArGrUrCrCdTdT / antisense rGrGrArCrUrGrUrUrArGrGrArUrUrCrGrGrUrUdCdA — higher, 49.9%
- sense rArArUrArGrCrCrArGrGrCrArGrCrArCrArGrCdTdT / antisense rGrCrUrGrUrGrCrUrGrCrCrUrGrGrCrUrArUrUdGdG — higher, 51%
- sense rArArUrCrGrArUrGrGrArGrUrCrCrArArCrArUdTdT / antisense rArUrGrUrUrGrGrArCrUrCrCrArUrCrGrArUrUdCdT — higher, 74.4%
- sense rArArUrGrUrUrUrCrArUrCrCrArArArUrGrUrGdTdT / antisense rCrArCrArUrUrUrGrGrArUrGrArArArCrArUrUdTdT — higher, 63.5%
- sense rArArUrUrCrArGrUrCrUrCrUrGrCrUrGrGrArUdTdT / antisense rArUrCrCrArGrCrArGrArGrArCrUrGrArArUrUdGdA — higher, 60.8%
- sense rArCrArArGrArGrGrArCrCrCrArCrCrUrGrUrGdTdT / antisense rCrArCrArGrGrUrGrGrGrUrCrCrUrCrUrUrGrUdAdA — higher, 61.1%
- sense rArCrCrArUrCrUrGrArArArArCrArArCrArUrCdTdT / antisense rGrArUrGrUrUrGrUrUrUrUrCrArGrArUrGrGrUdGdC — higher, 50.8%
- sense rArCrCrUrGrUrGrGrGrUrGrUrCrArGrUrGrGrCdTdT / antisense rGrCrCrArCrUrGrArCrArCrCrCrArCrArGrGrUdGdG — higher, 76.7%
- sense rArCrGrArGrArArUrArUrGrArGrArArArArGrAdTdT / antisense rUrCrUrUrUrUrCrUrCrArUrArUrUrCrUrCrGrUdTdT — higher, 84.2%
- sense rArGrArArArArGrArGrUrUrUrCrGrGrCrCrArUdTdT / antisense rArUrGrGrCrCrGrArArArCrUrCrUrUrUrUrCrUdCdA — higher, 77.8%
- sense rArGrArArUrCrGrArUrGrGrArGrUrCrCrArArCdTdT / antisense rGrUrUrGrGrArCrUrCrCrArUrCrGrArUrUrCrUdGdA — higher, 64.8%
- sense rArGrCrCrArArUrArGrCrCrArGrGrCrArGrCrAdTdT / antisense rUrGrCrUrGrCrCrUrGrGrCrUrArUrUrGrGrCrUdGdG — higher, 75.9%
- sense rArGrCrCrArGrGrCrArGrCrArCrArGrCrUrUrUdTdT / antisense rArArArGrCrUrGrUrGrCrUrGrCrCrUrGrGrCrUdAdT — higher, 71.4%
- sense rArGrGrGrArCrArCrCrUrUrUrUrGrArArGrArUdTdT / antisense rArUrCrUrUrCrArArArArGrGrUrGrUrCrCrCrUdTdC — higher, 78.1%
- sense rArGrUrCrCrArArCrArUrArUrGrArUrGrUrArUdTdT / antisense rArUrArCrArUrCrArUrArUrGrUrUrGrGrArCrUdCdC — higher, 83.6%
- sense rArGrUrCrCrArGrCrCrArArUrArGrCrCrArGrGdTdT / antisense rCrCrUrGrGrCrUrArUrUrGrGrCrUrGrGrArCrUdGdT — higher, 68.7%
- sense rArGrUrCrUrCrUrGrCrUrGrGrArUrGrArArCrCdTdT / antisense rGrGrUrUrCrArUrCrCrArGrCrArGrArGrArCrUdGdA — higher, 53.1%
- sense rArGrUrUrArUrArUrUrUrGrGrArCrCrArGrArAdTdT / antisense rUrUrCrUrGrGrUrCrCrArArArUrArUrArArCrUdGdC — higher, 79%
- sense rArUrArGrCrCrArGrGrCrArGrCrArCrArGrCrUdTdT / antisense rArGrCrUrGrUrGrCrUrGrCrCrUrGrGrCrUrArUdTdG — higher, 71.2%
- sense rArUrArUrGrArGrArArArArGrArGrUrUrUrCrGdTdT / antisense rCrGrArArArCrUrCrUrUrUrUrCrUrCrArUrArUdTdC — lower, 46.3%
- sense rArUrCrCrArArArUrGrUrGrUrArUrGrCrUrGrAdTdT / antisense rUrCrArGrCrArUrArCrArCrArUrUrUrGrGrArUdGdA — higher, 73%
- sense rArUrCrCrUrUrCrArGrArArUrCrGrArUrGrGrAdTdT / antisense rUrCrCrArUrCrGrArUrUrCrUrGrArArGrGrArUdAdT — higher, 77.2%
- sense rArUrGrCrArGrUrUrArUrArUrUrUrGrGrArCrCdTdT / antisense rGrGrUrCrCrArArArUrArUrArArCrUrGrCrArUdTdC — higher, 53.2%
- sense rArUrGrGrUrArGrCrArUrArUrGrUrUrUrArGrAdTdT / antisense rUrCrUrArArArCrArUrArUrGrCrUrArCrCrArUdCdA — higher, 69.4%
- sense rArUrGrUrUrUrArGrArUrArUrCrCrUrUrCrArGdTdT / antisense rCrUrGrArArGrGrArUrArUrCrUrArArArCrArUdAdT — lower, 46.7%
- sense rArUrUrUrCrArArGrCrGrGrUrUrArCrArArGrAdTdT / antisense rUrCrUrUrGrUrArArCrCrGrCrUrUrGrArArArUdCdC — higher, 78.2%
- sense rArUrUrUrUrCrUrGrArArGrArArUrArUrCrCrAdTdT / antisense rUrGrGrArUrArUrUrCrUrUrCrArGrArArArArUdTdC — higher, 63.7%
- sense rCrArArArUrGrUrGrUrArUrGrCrUrGrArUrGrGdTdT / antisense rCrCrArUrCrArGrCrArUrArCrArCrArUrUrUrGdGdA — higher, 62.6%
- sense rCrArGrArArUrCrGrArUrGrGrArGrUrCrCrArAdTdT / antisense rUrUrGrGrArCrUrCrCrArUrCrGrArUrUrCrUrGdAdA — higher, 86.3%
- sense rCrArGrCrArCrArGrCrUrUrUrArUrCrArGrGrAdTdT / antisense rUrCrCrUrGrArUrArArArGrCrUrGrUrGrCrUrGdCdC — higher, 77.5%
- sense rCrArGrGrArArArArCrArArArCrGrArGrArArUdTdT / antisense rArUrUrCrUrCrGrUrUrUrGrUrUrUrUrCrCrUrGdAdT — higher, 84%
- sense rCrArGrGrCrArGrCrArCrArGrCrUrUrUrArUrCdTdT / antisense rGrArUrArArArGrCrUrGrUrGrCrUrGrCrCrUrGdGdC — higher, 75.1%
- sense rCrArGrUrGrGrArArUrGrCrArGrUrUrArUrArUdTdT / antisense rArUrArUrArArCrUrGrCrArUrUrCrCrArCrUrGdCdA — higher, 83.5%
- sense rCrArGrUrGrGrCrGrCrArCrCrArUrCrUrGrArAdTdT / antisense rUrUrCrArGrArUrGrGrUrGrCrGrCrCrArCrUrGdAdC — higher, 61.8%
- sense rCrArUrArUrGrArUrGrUrArUrCrUrUrCrUrArUdTdT / antisense rArUrArGrArArGrArUrArCrArUrCrArUrArUrGdTdT — higher, 83.9%
- sense rCrCrArArArArUrGrUrUrUrCrArUrCrCrArArAdTdT / antisense rUrUrUrGrGrArUrGrArArArCrArUrUrUrUrGrGdAdT — higher, 84.6%
- sense rCrCrArCrCrArArCrUrGrUrUrArGrGrUrUrUrUdTdT / antisense rArArArArCrCrUrArArCrArGrUrUrGrGrUrGrGdTdT — higher, 69.7%
- sense rCrGrArGrArArUrArUrGrArGrArArArArGrArGdTdT / antisense rCrUrCrUrUrUrUrCrUrCrArUrArUrUrCrUrCrGdTdT — higher, 73.5%
- sense rCrGrGrCrCrArUrUrGrUrUrGrArArCrArArArGdTdT / antisense rCrUrUrUrGrUrUrCrArArCrArArUrGrGrCrCrGdAdA — higher, 76.5%
- sense rCrGrGrGrArUrUrUrCrArArGrCrGrGrUrUrArCdTdT / antisense rGrUrArArCrCrGrCrUrUrGrArArArUrCrCrCrGdCdA — higher, 85.1%
- sense rCrUrGrArArGrArArUrArUrCrCrArArArUrArAdTdT / antisense rUrUrArUrUrUrGrGrArUrArUrUrCrUrUrCrArGdAdA — higher, 80.1%
- sense rCrUrUrCrArGrArArUrCrGrArUrGrGrArGrUrCdTdT / antisense rGrArCrUrCrCrArUrCrGrArUrUrCrUrGrArArGdGdA — higher, 72.2%
- sense rGrArArCrCrGrArArUrCrCrUrArArCrArGrUrCdTdT / antisense rGrArCrUrGrUrUrArGrGrArUrUrCrGrGrUrUrCdAdT — higher, 72.7%

biological target: UBE2E3; assay: reporter assay of Huesken 2005; conditions: siRNA

Point of comparison: “sense rUrUrArUrCrCrArUrUrUrArArGrCrCrArCrCrAdTdT / antisense rUrGrGrUrGrGrCrUrUrArArArUrGrGrArUrArAdTdC”, normalised inhibition (eCFP-eYFP dual reporter) 28.7%. Against it:
- sense rUrGrCrUrGrUrCrUrArUrUrUrGrUrUrCrCrCrUdTdT / antisense rArGrGrGrArArCrArArArUrArGrArCrArGrCrAdAdA — higher, 73.4%
- sense rUrGrUrCrUrArUrUrUrGrUrUrCrCrCrUrUrUrUdTdT / antisense rArArArArGrGrGrArArCrArArArUrArGrArCrAdGdC — higher, 86%
- sense rUrUrCrCrGrCrArCrCrArGrArArUrCrUrArUrCdTdT / antisense rGrArUrArGrArUrUrCrUrGrGrUrGrCrGrGrArAdAdG — higher, 42.5%
- sense rUrUrUrUrGrArCrArGrArCrUrGrCrArArCrCrCdTdT / antisense rGrGrGrUrUrGrCrArGrUrCrUrGrUrCrArArArAdGdG — higher, 50.3%
